Laboratory results taken from patent US5506244A, “Cyclic amino acid derivatives” (Ciba-Geigy Corporation, priority 1994, dated 1996).
Like-named read-outs stand apart in the source and are kept apart here.

Assays:
[1] = system: Angiotensin I induced pressor response; experiment: inhibition of the angiotensin I induced pressor response in normotensive rats; type: in vivo, rat; conditions: 10 mg/Kg p.o., angiotensin I 300 ng/kg i.v.
Description: The in vivo test for intravenously administered compounds is performed with male, normotensive rats, which are anesthetized with sodium metofan. A femoral artery and femoral vein are cannulated respectively for direct blood pressure measurement on i.v. administration of angiotensin I and i.v. or p.o. administration of a compound of this invention. After the basal blood pressure is stabilized, pressor responses to 3 challenges of 300 ng/kg angiotensin I i.v., at 15 minute intervals, are obtained. Such pressure responses are usually again obtained at 15, 30, 60 and 90 minutes, and then every hour up to 6 hours after i.v. or p.o. administration of the compound to be tested, and compared with the initial responses. Any observed decrease of said pressor response is an indication of Angiotensin I converting enzyme inhibition.

[2] = target: T1, angiotensin-converting enzyme (ACE) (Oryctolagus cuniculus, UniProt P12822); experiment: in vitro inhibition of angiotensin-converting enzyme (ACE); type: biochemical
T1 sequence (P12822 34-1310): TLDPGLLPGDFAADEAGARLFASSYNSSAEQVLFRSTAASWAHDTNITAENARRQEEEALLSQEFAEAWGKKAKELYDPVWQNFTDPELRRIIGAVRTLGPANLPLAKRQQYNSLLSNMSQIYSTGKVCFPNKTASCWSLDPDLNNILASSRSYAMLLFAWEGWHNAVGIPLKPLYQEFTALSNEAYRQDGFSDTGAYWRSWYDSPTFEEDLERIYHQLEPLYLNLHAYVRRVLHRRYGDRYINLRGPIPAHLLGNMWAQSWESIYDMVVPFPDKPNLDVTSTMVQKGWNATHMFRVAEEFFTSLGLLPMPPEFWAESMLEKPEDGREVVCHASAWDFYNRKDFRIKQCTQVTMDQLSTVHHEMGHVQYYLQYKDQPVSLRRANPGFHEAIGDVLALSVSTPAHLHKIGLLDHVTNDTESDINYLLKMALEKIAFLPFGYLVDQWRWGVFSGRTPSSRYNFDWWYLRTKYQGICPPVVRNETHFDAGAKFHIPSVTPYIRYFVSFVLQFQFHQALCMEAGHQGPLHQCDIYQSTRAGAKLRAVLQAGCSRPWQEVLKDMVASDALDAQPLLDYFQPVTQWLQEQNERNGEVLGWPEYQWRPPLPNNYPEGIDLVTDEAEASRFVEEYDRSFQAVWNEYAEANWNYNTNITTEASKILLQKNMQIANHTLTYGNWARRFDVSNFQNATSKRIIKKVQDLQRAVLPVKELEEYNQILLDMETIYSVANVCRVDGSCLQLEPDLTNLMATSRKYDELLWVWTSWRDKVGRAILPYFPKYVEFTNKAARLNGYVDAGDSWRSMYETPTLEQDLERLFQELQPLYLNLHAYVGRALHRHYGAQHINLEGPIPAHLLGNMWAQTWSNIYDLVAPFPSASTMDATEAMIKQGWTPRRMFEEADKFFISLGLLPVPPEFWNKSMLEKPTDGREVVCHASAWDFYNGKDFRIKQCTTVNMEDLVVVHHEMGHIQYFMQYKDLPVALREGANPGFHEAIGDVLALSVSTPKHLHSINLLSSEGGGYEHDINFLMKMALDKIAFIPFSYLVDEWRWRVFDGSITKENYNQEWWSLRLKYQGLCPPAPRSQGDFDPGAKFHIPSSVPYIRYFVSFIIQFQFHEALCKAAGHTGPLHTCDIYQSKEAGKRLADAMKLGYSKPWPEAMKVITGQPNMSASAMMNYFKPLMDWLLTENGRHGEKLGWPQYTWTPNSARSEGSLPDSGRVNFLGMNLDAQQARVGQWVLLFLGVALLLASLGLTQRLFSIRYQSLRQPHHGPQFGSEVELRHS
Description: (§1) In vitro testing is most appropriate for the free carboxylic acids of the invention. The test compound is dissolved in dimethyl sulfoxide, ethanol, or 0.25 M sodium bicarbonate solution, and the solution is diluted with buffer to the desired concentration.
The buffer for the ACE assay is 300 mM NaCl, 100 mM KH2 PO4 (pH 8.3). The reaction is initiated by the addition of 100 μl of hippuryl-histidyl-leucine (2 mg/ml) to tubes containing enzyme and drug in a volume of 150 μl and tubes are incubated for 30 minutes at 37° C. The reaction is terminated by the addition of 0.75 ml 0.6 N NaOH. 100 μl of freshly prepared 0-pthaldehyde solution (2 mg/ml in methanol) is added to the tubes, the contents are mixed and allowed to stand at room temperature. After 10 minutes, 100 μl of 6 N HCl is added. The tubes are centrifuged and the supernatant optical density is read at 360 nm.

[3] = target: T2, neutral endopeptidase (NEP, EC 3.4.24.11) (Rattus norvegicus, UniProt P07861); experiment: in vitro inhibition of neutral endopeptidase (GAAP assay); type: biochemical; conditions: GAAP 500 μM, rat kidney cortex membranes, pH 7.4, 25° C., 10 minutes
T2 construct: rat kidney cortex membranes prepared by method of Maeda; from tissue; host or cells: rat kidney cortex membranes
T2 sequence (P07861 1-750): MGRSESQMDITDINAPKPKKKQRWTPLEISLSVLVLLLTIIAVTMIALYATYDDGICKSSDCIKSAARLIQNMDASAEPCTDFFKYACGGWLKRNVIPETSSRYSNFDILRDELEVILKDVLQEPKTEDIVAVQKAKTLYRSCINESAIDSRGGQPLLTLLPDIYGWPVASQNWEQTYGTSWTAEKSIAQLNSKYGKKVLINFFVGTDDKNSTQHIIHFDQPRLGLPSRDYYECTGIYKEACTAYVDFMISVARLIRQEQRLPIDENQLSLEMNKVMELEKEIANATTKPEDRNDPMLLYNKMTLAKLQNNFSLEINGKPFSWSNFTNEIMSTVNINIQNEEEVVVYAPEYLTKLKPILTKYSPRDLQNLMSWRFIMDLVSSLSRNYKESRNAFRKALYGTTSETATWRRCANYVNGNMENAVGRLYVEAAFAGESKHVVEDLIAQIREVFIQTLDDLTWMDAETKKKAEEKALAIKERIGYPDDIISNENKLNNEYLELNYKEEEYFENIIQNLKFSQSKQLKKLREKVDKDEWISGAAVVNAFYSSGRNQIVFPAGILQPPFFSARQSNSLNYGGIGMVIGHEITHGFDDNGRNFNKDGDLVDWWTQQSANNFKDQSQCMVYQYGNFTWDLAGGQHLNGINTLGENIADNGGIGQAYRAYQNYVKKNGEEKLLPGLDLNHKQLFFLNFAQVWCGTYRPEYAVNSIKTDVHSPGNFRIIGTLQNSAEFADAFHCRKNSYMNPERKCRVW
Description: as §1
The in vitro inhibition of neutral endopeptidase (NEP, EC 3.4.24.11 ) can be determined as follows:
Neutral endopeptidase 3.4.24.11 activity is determined by the hydrolysis of the substrate glutaryl-Ala-Ala-Phe-2-naphthylamide (GAAP) using a modified procedure of Orlowski and Wilk (1981). The incubation mixture (total volume 125 μl) contains 4.2 μg of protein (rat kidney cortex membranes prepared by method of Maeda et at, 1983), 50 mM iris buffer, pH 7.4 at 25° C., 500 μM substrate (final concentration), and leucine aminopeptidase M (2.5 μg). The mixture is incubated for 10 minutes at 25° C. and 100 μl of fast garnet (250 μg fast garnet/ml of 10% Tween 20 in 1 M sodium acetate, pH 4.2) is added. Enzyme activity is measured spectrophotometrically at 540 nm. One unit of NEP 24.11 activity is defined as 1 nmol of 2-naphthylamine released per minute at 25° C at pH 7.4. IC50 values are determined, i.e. the concentration of test compound required for 50% inhibition of the release of 2-naphthylamine.

Structure (SMILES)	duration of inhibition of the Angiotensin I induced pressor response [1]	IC50 ([2]; hippuryl-histidyl-leucine substrate, pH 8.3, 37° C., 30 minutes, read-out: IC50 in the ACE in vitro assay)	IC50 [3]	IC50 [2]
CCOC(=O)[C@H](Cc1ccc(O)cc1)NC(=O)C1(NC(=O)[C@@H](SC(C)=O)C(C)C)CCCC1 [1 (b), N-[[1-[(2(S)-acetylmercapto-3-methyl-1-oxobutyl)amino]-1-cyclopentyl]carbonyl]-L-tyrosine ethyl ester]	six			
CC(C)[C@H](S)C(=O)NC1(C(=O)N[C@@H](Cc2ccc(O)cc2)C(=O)O)CCCC1 [Example 2a]		~7 nM	~2 nM	
COc1ccc(C[C@H](NC(=O)C2(NC(=O)[C@@H](S)C(C)C)CCCC2)C(=O)O)cc1 [Example 2i]			~2.2 nM	~19 nM
